Values after ≈ are worked out from the molar mass of the structure shown.
What was measured:
Assay type in all cases: functional
[1] = system: Staphylococcus aureus; assay: Antibacterial activity against methicillin-resistant Staphylococcus aureus N315 assessed as inhibition of bacterial growth measured after 24 hrs by CLSI based broth microdilution method
[2] = system: Enterococcus faecalis; assay: Antibacterial activity against Enterococcus faecalis assessed as inhibition of bacterial growth measured after 24 hrs by CLSI based broth microdilution method
[3] = system: Escherichia coli; assay: Antibacterial activity against Escherichia coli assessed as inhibition of bacterial growth measured after 24 hrs by CLSI based broth microdilution method
[4] = system: Pseudomonas aeruginosa; assay: Antibacterial activity against Pseudomonas aeruginosa ATCC 27853 assessed as inhibition of bacterial growth measured after 24 hrs by CLSI based broth microdilution method
[5] = system: Staphylococcus aureus; assay: Antibacterial activity against Staphylococcus aureus assessed as inhibition of bacterial growth measured after 24 hrs by CLSI based broth microdilution method
[6] = system: Acinetobacter baumannii; assay: Antibacterial activity against Acinetobacter baumannii assessed as inhibition of bacterial growth measured after 24 hrs by CLSI based broth microdilution method
[7] = system: Escherichia coli; assay: Antibacterial activity against Escherichia coli ATCC 25922 assessed as inhibition of bacterial growth measured after 24 hrs by CLSI based broth microdilution method
[8] = system: Klebsiella pneumoniae; assay: Antibacterial activity against Klebsiella pneumoniae assessed as inhibition of bacterial growth measured after 24 hrs by CLSI based broth microdilution method
[9] = system: Staphylococcus aureus; assay: Antibacterial activity against Staphylococcus aureus ATCC 25923 assessed as inhibition of bacterial growth measured after 24 hrs by CLSI based broth microdilution method
[10] = system: Pseudomonas aeruginosa; assay: Antibacterial activity against Pseudomonas aeruginosa assessed as inhibition of bacterial growth measured after 24 hrs by CLSI based broth microdilution method

| Compound | MIC [1] | MIC [2] | MIC [3] | MIC [4] | MIC [5] | MIC [6] | MIC [7] | MIC [8] | MIC [9] | MIC [10] |
| --- | --- | --- | --- | --- | --- | --- | --- | --- | --- | --- |
| CCn1cc(C(=O)O)c(=O)c2cc(F)c(N3CCNCC3)cc21 [NORFLOXACIN] | 8 µg/mL (≈ 25.1 µM) | 4 µg/mL (≈ 12.5 µM) | 8 µg/mL (≈ 25.1 µM) | 2 µg/mL (≈ 6.26 µM) | 8 µg/mL (≈ 25.1 µM) | 8 µg/mL (≈ 25.1 µM) | 4 µg/mL (≈ 12.5 µM) | 4 µg/mL (≈ 12.5 µM) | 4 µg/mL (≈ 12.5 µM) | 2 µg/mL (≈ 6.26 µM) |
| COP(=O)(OC)C(Nc1ccc(S(=O)(=O)Nc2onc(C)c2C)cc1)c1cc(O)c2c(c1)C(=O)c1cccc(O)c1C2=O (stereo not given) | 2 µg/mL (≈ 3.19 µM) | 64 µg/mL (≈ 102 µM) | 128 µg/mL (≈ 204 µM) | 256 µg/mL (≈ 408 µM) | 2 µg/mL (≈ 3.19 µM) | 4 µg/mL (≈ 6.37 µM) | 0.5 µg/mL (≈ 0.797 µM) | 32 µg/mL (≈ 51 µM) | 8 µg/mL (≈ 12.7 µM) | 8 µg/mL (≈ 12.7 µM) |
| Cc1noc(NS(=O)(=O)c2ccc(NC(c3cc(O)c4c(c3)C(=O)c3cccc(O)c3C4=O)P(=O)(OC(C)C)OC(C)C)cc2)c1C (stereo not given) | 0.25 µg/mL (≈ 0.366 µM) | 64 µg/mL (≈ 93.6 µM) | 64 µg/mL (≈ 93.6 µM) | 256 µg/mL (≈ 374 µM) | 2 µg/mL (≈ 2.93 µM) | 2 µg/mL (≈ 2.93 µM) | 0.5 µg/mL (≈ 0.731 µM) | 2 µg/mL (≈ 2.93 µM) | 2 µg/mL (≈ 2.93 µM) | 2 µg/mL (≈ 2.93 µM) |
| O=C1c2cccc(O)c2C(=O)c2c(O)cc(C(Nc3ccc(S(=O)(=O)Nc4nccs4)cc3)P(=O)(Oc3ccccc3)Oc3ccccc3)cc21 (stereo not given) | 64 µg/mL (≈ 86.5 µM) | 64 µg/mL (≈ 86.5 µM) | 128 µg/mL (≈ 173 µM) | 128 µg/mL (≈ 173 µM) | 64 µg/mL (≈ 86.5 µM) | 64 µg/mL (≈ 86.5 µM) | 64 µg/mL (≈ 86.5 µM) | 128 µg/mL (≈ 173 µM) | 256 µg/mL (≈ 346 µM) | 32 µg/mL (≈ 43.3 µM) |
| Nc1ccc(S(=O)(=O)Nc2ncccn2)cc1 [SULFADIAZINE] | 64 µg/mL (≈ 256 µM) | 16 µg/mL (≈ 63.9 µM) | 64 µg/mL (≈ 256 µM) | 64 µg/mL (≈ 256 µM) | 64 µg/mL (≈ 256 µM) | 32 µg/mL (≈ 128 µM) | 32 µg/mL (≈ 128 µM) | 256 µg/mL (≈ 1020 µM) | 16 µg/mL (≈ 63.9 µM) | 8 µg/mL (≈ 32 µM) |
| CCCCOP(=O)(OCCCC)C(Nc1ccc(S(=O)(=O)Nc2cc(C)on2)cc1)c1cc(O)c2c(c1)C(=O)c1cccc(O)c1C2=O (stereo not given) | 16 µg/mL (≈ 22.9 µM) | 256 µg/mL (≈ 367 µM) | 128 µg/mL (≈ 183 µM) | 64 µg/mL (≈ 91.7 µM) | 128 µg/mL (≈ 183 µM) | 64 µg/mL (≈ 91.7 µM) | 64 µg/mL (≈ 91.7 µM) | 256 µg/mL (≈ 367 µM) | 128 µg/mL (≈ 183 µM) | 64 µg/mL (≈ 91.7 µM) |
| O=C1c2cccc(O)c2C(=O)c2c(O)cc(CO)cc21 [ALOE-EMODIN] | 16 µg/mL (≈ 59.2 µM) | 32 µg/mL (≈ 118 µM) | 8 µg/mL (≈ 29.6 µM) | 4 µg/mL (≈ 14.8 µM) | 64 µg/mL (≈ 237 µM) | 8 µg/mL (≈ 29.6 µM) | 4 µg/mL (≈ 14.8 µM) | 64 µg/mL (≈ 237 µM) | 8 µg/mL (≈ 29.6 µM) | 16 µg/mL (≈ 59.2 µM) |
| Nc1ccc(S(N)(=O)=O)cc1 [SULFANILAMIDE] | 256 µg/mL (≈ 1490 µM) | 128 µg/mL (≈ 743 µM) | 64 µg/mL (≈ 372 µM) | 2 µg/mL (≈ 11.6 µM) | 128 µg/mL (≈ 743 µM) | 4 µg/mL (≈ 23.2 µM) | 4 µg/mL (≈ 23.2 µM) | 8 µg/mL (≈ 46.5 µM) | 256 µg/mL (≈ 1490 µM) | 4 µg/mL (≈ 23.2 µM) |
| CCOP(=O)(OCC)C(Nc1ccc(S(=O)(=O)Nc2nccs2)cc1)c1cc(O)c2c(c1)C(=O)c1cccc(O)c1C2=O (stereo not given) | 256 µg/mL (≈ 398 µM) | 0.5 µg/mL (≈ 0.777 µM) | 256 µg/mL (≈ 398 µM) | 128 µg/mL (≈ 199 µM) | 16 µg/mL (≈ 24.9 µM) | 64 µg/mL (≈ 99.4 µM) | 256 µg/mL (≈ 398 µM) | 256 µg/mL (≈ 398 µM) | 256 µg/mL (≈ 398 µM) | 256 µg/mL (≈ 398 µM) |
| Cc1cc(NS(=O)(=O)c2ccc(NC(c3cc(O)c4c(c3)C(=O)c3cccc(O)c3C4=O)P(=O)(OC(C)C)OC(C)C)cc2)no1 (stereo not given) | 128 µg/mL (≈ 191 µM) | 32 µg/mL (≈ 47.8 µM) | 64 µg/mL (≈ 95.6 µM) | 8 µg/mL (≈ 11.9 µM) | 128 µg/mL (≈ 191 µM) | 0.5 µg/mL (≈ 0.747 µM) | 64 µg/mL (≈ 95.6 µM) | 256 µg/mL (≈ 382 µM) | 256 µg/mL (≈ 382 µM) | 32 µg/mL (≈ 47.8 µM) |
| Nc1ccc(S(=O)(=O)Nc2nccs2)cc1 [SULFATHIAZOLE] | 128 µg/mL (≈ 501 µM) | 64 µg/mL (≈ 251 µM) | 64 µg/mL (≈ 251 µM) | 64 µg/mL (≈ 251 µM) | 128 µg/mL (≈ 501 µM) | 32 µg/mL (≈ 125 µM) | 64 µg/mL (≈ 251 µM) | 256 µg/mL (≈ 1000 µM) | 64 µg/mL (≈ 251 µM) | 64 µg/mL (≈ 251 µM) |
| Cc1noc(NS(=O)(=O)c2ccc(NC(c3cc(O)c4c(c3)C(=O)c3cccc(O)c3C4=O)P(=O)(Oc3ccccc3)Oc3ccccc3)cc2)c1C (stereo not given) | 32 µg/mL (≈ 42.6 µM) | 64 µg/mL (≈ 85.1 µM) | 64 µg/mL (≈ 85.1 µM) | 64 µg/mL (≈ 85.1 µM) | 16 µg/mL (≈ 21.3 µM) | 128 µg/mL (≈ 170 µM) | 64 µg/mL (≈ 85.1 µM) | 128 µg/mL (≈ 170 µM) | 16 µg/mL (≈ 21.3 µM) | 32 µg/mL (≈ 42.6 µM) |
| COP(=O)(OC)C(Nc1ccc(S(N)(=O)=O)cc1)c1cc(O)c2c(c1)C(=O)c1cccc(O)c1C2=O (stereo not given) | 16 µg/mL (≈ 30 µM) | 0.25 µg/mL (≈ 0.47 µM) | 2 µg/mL (≈ 3.76 µM) | 32 µg/mL (≈ 60.1 µM) | 32 µg/mL (≈ 60.1 µM) | 0.5 µg/mL (≈ 0.939 µM) | 8 µg/mL (≈ 15 µM) | 128 µg/mL (≈ 240 µM) | 128 µg/mL (≈ 240 µM) | 64 µg/mL (≈ 120 µM) |
| COP(=O)(OC)C(Nc1ccc(S(=O)(=O)Nc2nccs2)cc1)c1cc(O)c2c(c1)C(=O)c1cccc(O)c1C2=O (stereo not given) | 64 µg/mL (≈ 104 µM) | 32 µg/mL (≈ 52 µM) | 1 µg/mL (≈ 1.62 µM) | 64 µg/mL (≈ 104 µM) | 8 µg/mL (≈ 13 µM) | 8 µg/mL (≈ 13 µM) | 64 µg/mL (≈ 104 µM) | 2 µg/mL (≈ 3.25 µM) | 32 µg/mL (≈ 52 µM) | 16 µg/mL (≈ 26 µM) |
| COP(=O)(OC)C(Nc1ccc(S(=O)(=O)Nc2cc(C)on2)cc1)c1cc(O)c2c(c1)C(=O)c1cccc(O)c1C2=O (stereo not given) | 128 µg/mL (≈ 209 µM) | 64 µg/mL (≈ 104 µM) | 16 µg/mL (≈ 26.1 µM) | 64 µg/mL (≈ 104 µM) | 8 µg/mL (≈ 13 µM) | 128 µg/mL (≈ 209 µM) | 64 µg/mL (≈ 104 µM) | 32 µg/mL (≈ 52.2 µM) | 0.5 µg/mL (≈ 0.815 µM) | 16 µg/mL (≈ 26.1 µM) |
